ChEMBL document CHEMBL4840369, “Structure-based screening combined with computational and biochemical analyses identified the inhibitor targeting the binding of DNA Ligase 1 to UHRF1” (Bioorg Med Chem, 2021)
Active and inactive are the calls of the source. The rule behind the calls is not given here.

Assays:
[1] = biological target: T1, E3 ubiquitin-protein ligase UHRF1 (Homo sapiens) (UniProt Q96T88); assay: Binding affinity to UHRF1 TTD (unknown origin) assessed as increase in thermal stability by measuring change in melting temperature by SYPRO orange dye based fluorescence assay
T1 sequence (whole entry): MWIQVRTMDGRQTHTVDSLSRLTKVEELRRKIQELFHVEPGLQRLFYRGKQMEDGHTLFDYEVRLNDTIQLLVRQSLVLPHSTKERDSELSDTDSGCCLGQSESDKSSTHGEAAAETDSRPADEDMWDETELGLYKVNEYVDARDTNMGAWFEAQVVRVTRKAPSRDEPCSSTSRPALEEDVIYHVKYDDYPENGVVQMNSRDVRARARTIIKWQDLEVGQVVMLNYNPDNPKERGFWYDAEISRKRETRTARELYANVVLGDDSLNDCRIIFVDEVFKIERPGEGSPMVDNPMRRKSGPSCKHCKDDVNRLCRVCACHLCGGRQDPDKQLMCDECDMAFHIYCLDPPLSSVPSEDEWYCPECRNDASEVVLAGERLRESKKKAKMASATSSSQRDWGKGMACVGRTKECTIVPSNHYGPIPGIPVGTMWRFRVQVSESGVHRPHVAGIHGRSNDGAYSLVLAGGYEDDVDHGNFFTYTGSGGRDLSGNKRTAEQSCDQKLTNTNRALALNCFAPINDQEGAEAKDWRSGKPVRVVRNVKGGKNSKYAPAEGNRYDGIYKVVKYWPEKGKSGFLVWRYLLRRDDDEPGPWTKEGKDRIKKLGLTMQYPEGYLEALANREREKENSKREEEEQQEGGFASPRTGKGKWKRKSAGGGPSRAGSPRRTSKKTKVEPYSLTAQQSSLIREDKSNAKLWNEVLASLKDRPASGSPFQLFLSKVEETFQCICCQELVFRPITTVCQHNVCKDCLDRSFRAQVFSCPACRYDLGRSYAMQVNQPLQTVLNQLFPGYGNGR

[2] = biological target: T2, E3 ubiquitin-protein ligase UHRF1 (Homo sapiens, UniProt Q96T88); assay: Binding affinity to UHRF1 TTD (unknown origin) assessed as dissociation constant by ITC analysis
T2 sequence (Q96T88 whole entry): T1 sequence (whole entry)

[3] = biological target: T1, E3 ubiquitin-protein ligase UHRF1 (Homo sapiens); assay: Binding affinity to UHRF1 TTD (unknown origin) assessed as change in enthalpy by ITC analysis
[4] = biological target: E3 ubiquitin-protein ligase UHRF1 (Homo sapiens, UniProt Q96T88, Y188A/Y191A); assay: Binding affinity to UHRF1 Y188A/Y191A double mutant (unknown origin) assessed as dissociation constant by ITC analysis
[5] = biological target: E3 ubiquitin-protein ligase UHRF1 (Homo sapiens, UniProt Q96T88); assay: Binding affinity to UHRF1 TTD variant loop (unknown origin) assessed as dissociation constant by ITC analysis
[6] = biological target: T1, E3 ubiquitin-protein ligase UHRF1 (Homo sapiens); assay: Displacement of FAM-labeled H3K9me3 from UHRF1 TTD(unknown origin) by fluorescence polarization assay
[7] = biological target: T1, E3 ubiquitin-protein ligase UHRF1 (Homo sapiens); assay: Displacement of FAM-labeled LIG1K126me3 from UHRF1 TTD(unknown origin) by fluorescence polarization assay
[8] = biological target: T3, E3 ubiquitin-protein ligase UHRF1 (Xenopus laevis) (UniProt B6CHA3); assay: Inhibition of UHRF1 TTD binding with LIG1K126me3 in Xenopus laevis eggs incubated for 1 hr by immunoprecipitation; type: tissue-based; settings: Egg
T3 sequence (whole entry): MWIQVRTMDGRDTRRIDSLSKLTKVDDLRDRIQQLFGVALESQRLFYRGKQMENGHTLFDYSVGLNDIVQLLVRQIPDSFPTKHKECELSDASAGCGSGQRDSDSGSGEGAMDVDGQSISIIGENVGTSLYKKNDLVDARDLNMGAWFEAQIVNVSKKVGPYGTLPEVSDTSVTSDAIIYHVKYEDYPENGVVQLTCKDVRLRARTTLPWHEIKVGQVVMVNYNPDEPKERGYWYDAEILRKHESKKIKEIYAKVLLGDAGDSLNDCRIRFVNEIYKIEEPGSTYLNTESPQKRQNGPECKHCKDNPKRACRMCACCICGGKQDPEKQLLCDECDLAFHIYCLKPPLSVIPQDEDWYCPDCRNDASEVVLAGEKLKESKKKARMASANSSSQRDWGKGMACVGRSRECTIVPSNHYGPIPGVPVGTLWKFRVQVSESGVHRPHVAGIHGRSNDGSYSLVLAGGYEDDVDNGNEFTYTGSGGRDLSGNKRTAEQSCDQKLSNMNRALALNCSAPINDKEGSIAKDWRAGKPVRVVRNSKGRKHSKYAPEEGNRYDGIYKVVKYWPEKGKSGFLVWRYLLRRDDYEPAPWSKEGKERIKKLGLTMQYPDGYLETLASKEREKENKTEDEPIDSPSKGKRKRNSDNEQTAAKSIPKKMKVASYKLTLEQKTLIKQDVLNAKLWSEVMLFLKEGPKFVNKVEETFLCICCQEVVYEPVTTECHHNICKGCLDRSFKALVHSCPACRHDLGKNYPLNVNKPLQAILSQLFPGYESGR

[9] = biological target: T1, E3 ubiquitin-protein ligase UHRF1 (Homo sapiens); assay: Binding affinity to UHRF1 TTD (unknown origin) assessed as compound-protein complex stoichiometry ratio of 1:1 by ITC analysis
[10] = biological target: E3 ubiquitin-protein ligase UHRF1 (Homo sapiens, UniProt Q96T88, M224A); assay: Binding affinity to UHRF1 M224A mutant (unknown origin) assessed as dissociation constant by ITC analysis
[11] = biological target: E3 ubiquitin-protein ligase UHRF1 (Homo sapiens, UniProt Q96T88, F278A); assay: Binding affinity to UHRF1 F278A mutant (unknown origin) assessed as dissociation constant by ITC analysis
[12] = biological target: T1, E3 ubiquitin-protein ligase UHRF1 (Homo sapiens); assay: Binding affinity to UHRF1 TTD (unknown origin) assessed as increase in thermal stability by melting temperature by SYPRO orange dye based fluorescence assay (reference value: 46.5 +/- 0.1 degreeC)

E3 ubiquitin-protein ligase UHRF1 (Homo sapiens, UniProt Q96T88, M224A), sequence (Q96T88 whole entry M224A): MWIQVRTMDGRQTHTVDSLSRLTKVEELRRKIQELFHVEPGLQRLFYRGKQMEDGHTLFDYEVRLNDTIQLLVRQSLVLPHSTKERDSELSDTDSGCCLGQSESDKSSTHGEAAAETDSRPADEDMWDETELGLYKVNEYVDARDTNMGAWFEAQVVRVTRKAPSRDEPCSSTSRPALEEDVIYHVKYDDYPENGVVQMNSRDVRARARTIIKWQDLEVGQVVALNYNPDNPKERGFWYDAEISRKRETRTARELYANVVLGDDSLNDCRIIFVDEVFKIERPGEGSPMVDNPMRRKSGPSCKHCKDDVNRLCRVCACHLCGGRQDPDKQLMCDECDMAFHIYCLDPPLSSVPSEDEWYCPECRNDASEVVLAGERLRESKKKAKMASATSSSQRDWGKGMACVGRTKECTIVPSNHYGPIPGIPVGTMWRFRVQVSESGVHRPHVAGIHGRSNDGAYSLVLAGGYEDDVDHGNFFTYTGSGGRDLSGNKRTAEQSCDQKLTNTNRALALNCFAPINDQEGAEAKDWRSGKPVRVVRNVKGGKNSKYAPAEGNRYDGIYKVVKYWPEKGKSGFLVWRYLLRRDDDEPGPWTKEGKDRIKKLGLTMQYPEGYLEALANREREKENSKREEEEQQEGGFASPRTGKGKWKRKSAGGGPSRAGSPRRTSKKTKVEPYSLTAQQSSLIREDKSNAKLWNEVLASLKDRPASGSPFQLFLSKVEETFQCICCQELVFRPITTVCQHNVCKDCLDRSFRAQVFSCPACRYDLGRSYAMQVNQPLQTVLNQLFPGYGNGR
E3 ubiquitin-protein ligase UHRF1 (Homo sapiens, UniProt Q96T88, Y188A/Y191A), sequence (Q96T88 whole entry Y188A/Y191A): as the sequence (Q96T88 whole entry M224A) above, with Y188A, Y191A, A224M counted along it
E3 ubiquitin-protein ligase UHRF1 (Homo sapiens, UniProt Q96T88, F278A), sequence (Q96T88 whole entry F278A): as the sequence (Q96T88 whole entry M224A) above, with A224M, F278A counted along it

- deltaT [1]: 3.1 °C
- Kd [2]: 19.3 µM
- deltaH [3]: -35.6 kJ/mol
- Kd [4]: 32 µM
- Kd [5]: 20.7 µM
- INH [6]: 249 µM
- INH [7]: 806 µM
- inhibition [8]: Dose-Dependent Effect
- Activity [9]: Active
- Kd [10]: > 111 µM
- Kd [11]: > 183 µM
- Tm [12]: 49.6 °C
Compound: Cc1cc(C)c(N)cn1
